Structures can show the parent of a compound that is named as a salt.

The test system of data set [1] is cardiac arrhythmias. The settings on record: in vivo; cited from earlier work.
Data set [2] relates to artificially induced ventricular fibrillation, rat hearts. The settings on record: isolated rat hearts; cited from earlier work.
Data set [3] deals with T1, Na^+ /H^+ exchanger of rabbit erythrocytes (Oryctolagus cuniculus, UniProt P23791).
T1 construct: Na^+ influx into the erythrocytes via Na^+ /H^+ exchange; endogenous in cells; host or cells: intact erythrocytes from blood of cholesterol-fed New Zealand White rabbits (Ivanovas)
T1 sequence (P23791 whole entry): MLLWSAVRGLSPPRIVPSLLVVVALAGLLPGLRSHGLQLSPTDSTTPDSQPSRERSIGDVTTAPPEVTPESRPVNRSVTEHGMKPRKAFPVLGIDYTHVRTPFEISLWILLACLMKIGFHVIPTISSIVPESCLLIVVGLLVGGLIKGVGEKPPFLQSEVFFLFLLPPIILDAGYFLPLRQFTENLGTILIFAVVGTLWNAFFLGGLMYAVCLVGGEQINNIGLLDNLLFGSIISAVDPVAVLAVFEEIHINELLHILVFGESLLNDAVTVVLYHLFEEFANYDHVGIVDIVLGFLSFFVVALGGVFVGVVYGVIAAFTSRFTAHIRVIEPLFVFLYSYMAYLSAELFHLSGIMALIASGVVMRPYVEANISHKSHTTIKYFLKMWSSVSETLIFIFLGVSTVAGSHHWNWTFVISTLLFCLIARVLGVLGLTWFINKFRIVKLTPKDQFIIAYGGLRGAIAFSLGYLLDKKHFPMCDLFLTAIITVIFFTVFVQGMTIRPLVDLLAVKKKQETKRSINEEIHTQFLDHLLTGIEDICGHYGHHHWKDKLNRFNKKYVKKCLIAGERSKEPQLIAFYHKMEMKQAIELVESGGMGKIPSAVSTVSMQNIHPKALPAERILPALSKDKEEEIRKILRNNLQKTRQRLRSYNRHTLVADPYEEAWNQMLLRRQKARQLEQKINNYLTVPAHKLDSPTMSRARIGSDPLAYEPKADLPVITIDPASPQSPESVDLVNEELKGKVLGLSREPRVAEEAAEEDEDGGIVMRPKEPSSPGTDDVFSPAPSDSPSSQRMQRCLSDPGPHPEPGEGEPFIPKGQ
The data set is described as follows: Inhibition of the Na^+ /H^+ exchanger of rabbit erythrocytes (Na^+ influx by flame photometry). The class given is cell-based, rabbit (New Zealand White). The settings on record: pH 7.4, 37° C., Na^+ influx in hyperosmolar salt/sucrose medium. From the text:
Inhibition of the Na^+ /H^+ exchanger of rabbit erythrocytes:
New Zealand White rabbits (Ivanovas) received a standard diet containing 2% cholesterol for six weeks in order to activate the Na^+ /H^+ exchange and thus to be able to determine, by flame photometry, the Na^+ influx into the erythrocytes via Na^+ /H^+ exchange. The blood was removed from the aural arteries and rendered incoagulable using 25 IE/ml of potassium heparin. A part of each sample was used for the duplicate determination of the hematocrit by means of centrifugation. Aliquots of in each case 100 μl were used for measuring the initial Na^+ content of the erythrocytes.
In order to determine the amiloride-sensitive sodium influx, 100 μl of each blood sample were in each case incubated, at pH 7.4 and 37° C., in 5 ml of a hyperosmolar salt/sucrose medium (mmol/l: 140 NaCl, 3 KCl, 150 sucrose, 0.1 ouabain, 20 tris(hydroxymethyl)aminomethane). The erythrocytes were then washed three times with ice-cold MgCl2 /ouabain solution (mmol/l: 112 MgCl2, 0.1 ouabain) and hemolyzed in 2.0 ml of distilled water. The intracellular sodium content was determined by flame photometry.
The net influx of Na^+ was calculated from the difference between the initial sodium values and the sodium content of the erythrocytes following incubation. The amiloride-inhibitable sodium influx resulted from the difference in the sodium content of the erythrocytes following incubation with and without amiloride 3×10^-4 mol/l. This method was also employed in the case of the compounds according to the invention.

Regarding `N=C(N)NC(=O)c1nc(Cl)c(N)nc1N` [amiloride], in data set [1], the antiarrhythmic effect entry is “only weakly expressed”; the “side effects (hypotensive and saluretic)” value is “hypotensive and saluretic effects”. For the same compound, in data set [2], the “suppression of artificially induced ventricular fibrillation” value was “completely suppress artificially induced ventricular fibrillation”.

Take `N=C(N)NC(=O)c1cc(Cl)c(NC(=O)Nc2ccccc2)c(Cl)c1` [Example 21, 3,5-Dichloro-4-(phenylaminocarbonylamino)benzoylguanidine hydrochloride]: the IC50 in data set [3] was found to be 1 µM.

As for `CC(C)(C)NC(=O)Nc1ccc(Cl)cc1C(=O)NC(=N)N` [Example 7, 5-Chloro-2-(tert-butylaminocarbonylamino)benzoylguanidine hydrochloride], in data set [3], the concentration for half-maximal inhibition (IC50) is 3 to 8 µM.

In the case of `CN(C)C(=O)Nc1ccc(Cl)cc1C(=O)NC(=N)N` [Example 3, 5-Chloro-2-(dimethylaminocarbonylamino)benzoylguanidine hydrochloride], the IC50 in data set [3] is 3 µM.

In the case of `CCN(c1nc(N)c(C(=O)NC(=N)N)nc1Cl)C(C)C` [ethylisopropylamiloride], in data set [2], the “suppression of artificially induced ventricular fibrillation” value is “even more potent than amiloride”.

Consider `CCCNC(=O)Nc1c(Cl)cc(C(=O)NC(=N)N)cc1Cl` [Example 20, 3,5-Dichloro-4-(n-propylaminocarbonylamino)benzoylguanidine hydrochloride], for which the IC50 in data set [3] lay in the range of 2 to 5 µM.

With `CCNC(=S)Nc1cc(C(=O)NC(=N)N)ccc1Cl` [Example 17, 4-Chloro-3-(ethylaminothiocarbonylamino)benzoylguanidine hydrochloride], in data set [3], the 50% inhibitory concentration (IC50) is 3 to 5 µM.

Consider `N=C(N)NC(=O)c1cc(Cl)ccc1NC(=O)N1CCCCC1` [Example 1, 5-Chloro-2-(piperidinocarbonylamino)benzoylguanidine], for which the IC50 in data set [3] lay within 1 to 2 µM.

Broadly, the IC50 is the concentration needed to halve the response being measured.
